In ChEMBL document CHEMBL2375331, “Daphnane-type diterpenes with inhibitory activities against human cancer cell lines from Daphne genkwa” (Bioorg Med Chem Lett, 2013) one finds IC50 data, which are given here for 16 compounds.

What all share (assay type): functional, cell-based
For one assay, the system named is K562. The assay is described as follows: Cytotoxicity against human K562 cells after 48 hrs by MTT assay. Particulars: K562, 48 h.
The subject of a further assay is U-937. The assay is described as follows: Cytotoxicity against human U937 cells after 48 hrs by MTT assay. The conditions noted are these: U-937, 48 h. (Tetrazolium assays rely on reduction of a dye to a coloured formazan, in cell work by metabolically active cells.)
The next assay has as its system HL-60. The assay is described as follows: Cytotoxicity against human HL60 cells after 48 hrs by MTT assay. Particulars: HL-60, 48 h.
The nature of assay [1]: Cytotoxicity against human A375-S2 cells after 48 hrs by MTT assay. Particulars: A375-S2, 48 h.
Another assay has as its system HT-1080. The assay is described as follows: Cytotoxicity against human HT1080 cells after 48 hrs by MTT assay. The conditions noted are these: HT-1080, 48 h.
Another assay has as its system HCT-116. The assay is described as follows: Cytotoxicity against human HCT116 cells after 48 hrs by MTT assay. Particulars: HCT-116, 48 h.
The next assay relates to A549. The assay is described as follows: Cytotoxicity against human A549 cells after 48 hrs by MTT assay. The conditions noted are these: A549, 48 h.
For the next assay, the system named is HepG2. The assay is described as follows: Cytotoxicity against human HepG2 cells after 48 hrs by MTT assay. Particulars: HepG2, 48 h.
The next assay has as its system HeLa. The assay is described as follows: Cytotoxicity against human HeLa cells after 48 hrs by MTT assay.
A further assay has as its system MCF7. The assay is described as follows: Cytotoxicity against human MCF7 cells after 48 hrs by MTT assay. The conditions noted are these: MCF7, 48 h.

In the case of `C=C(C)[C@@]12O[C@@]3(c4ccccc4)O[C@@H]1[C@@H]1[C@@H]4O[C@]4(CO)[C@@H](O)[C@]4(O)C(=O)C(C)=C[C@H]4[C@@]1(O3)[C@H](C)[C@H]2OC(C)=O`, the IC50 in the assay with K562 was over 50 µM; in the assay with U-937 it was over 50 µM; in the assay with HL-60, over 50 µM; in assay [1], over 50 µM; in the assay with HT-1080 it was under 0.1 µM; with HCT-116 it was 37.5 µM. In addition, the IC50 was over 50 µM in the assay with A549, over 50 µM in the assay with HepG2, 42.4 µM in the assay on HeLa and over 50 µM with MCF7.
Regarding `C=C(C)[C@@]12O[C@@]3(/C=C/C=C/CCCCC)O[C@@H]1[C@@H]1[C@@H]4O[C@]4(CO)[C@@H](O)[C@]4(O)C(=O)C(C)=C[C@H]4[C@@]1(O3)[C@H](C)[C@H]2OC(C)=O` [YUANHUADINE], the IC50 with K562 was 22.2 µM; with U-937, 14.7 µM; in the assay with HL-60, 30.1 µM; in assay [1] it was 15.8 µM; with HT-1080, under 0.1 µM; with HCT-116, 32.6 µM. Moreover, the IC50 was over 50 µM in the assay on A549, 26.3 µM with HepG2, 17.1 µM with HeLa and 4.11 µM in the assay with MCF7.
Turning to `C=C(C)[C@]12C[C@@H](C)[C@@]34O[C@@]5(CCCCCCC[C@@H](C)[C@H]6[C@H](C)C(=O)[C@@](O)([C@H](O)[C@@]7(CO)O[C@H]7[C@H]3[C@H]1O5)[C@@H]64)O2` [WIKSTROELIDE E], the IC50 with K562 was found to be 24 µM; in the assay on U-937, 19.5 µM; in the assay on HL-60, 22.1 µM; in [1], 29 µM; with HT-1080 it was 15.1 µM; in the assay on HCT-116, 29.9 µM. Also, the IC50 was 19.3 µM with A549, 11.4 µM in the assay on HepG2, 17.1 µM in the assay with HeLa and over 50 µM with MCF7.
As to `C=C(C)[C@@]12O[C@@]3(c4ccccc4)O[C@@H]1[C@@H]1[C@@H]4O[C@]4(CO)[C@@H](O)[C@]4(O)C(=O)[C@@H](C)C[C@H]4[C@@]1(O3)[C@H](C)[C@H]2OC(C)=O`, the IC50 in the assay on K562 was over 50 µM; in the assay with U-937, over 50 µM; in the assay on HL-60, over 50 µM; in assay [1] it was 14.2 µM; in the assay on HT-1080, under 0.1 µM; in the assay with HCT-116, over 50 µM. Also, the IC50 in the assay on A549 was over 50 µM; in the assay with HepG2 it was over 50 µM; in the assay with HeLa, 50 µM; with MCF7, 23.6 µM.
In the case of `C=C(C)[C@]12C[C@@H](C)[C@@]34O[C@](CCCCCCCCC)(O[C@@H]1[C@@H]3[C@@H]1O[C@]1(CO)[C@@H](O)[C@]1(O)C(=O)C(C)=C[C@H]14)O2` [SIMPLEXIN], the IC50 in the assay on K562 was over 50 µM; in the assay on U-937 it was over 50 µM; with HL-60, over 50 µM; in [1] it was 10.7 µM; in the assay on HT-1080, under 0.1 µM; with HCT-116, over 50 µM. Besides, the IC50 in the assay on A549 stood at 27 µM; with HepG2 it was 38.8 µM; in the assay with HeLa, 21.7 µM; in the assay with MCF7, 25.4 µM.
In the case of `C=C(C)[C@@]12OC3(c4ccccc4)O[C@@H]1[C@@H]1[C@H](O)[C@](O)(CO)[C@@H](O)[C@]4(O)C(=O)[C@@H](C)C=C4[C@@]1(O3)[C@H](C)[C@H]2OC(=O)c1ccccc1`, the IC50 with K562 is 46.9 µM; in the assay with U-937, 29.9 µM; in the assay on HL-60, 27.7 µM; in [1], 14.3 µM; in the assay with HT-1080, 16.1 µM; in the assay on HCT-116, over 50 µM. In addition, the IC50 in the assay on A549 was 26.9 µM; in the assay with HepG2 it was 27.9 µM; in the assay with HeLa, 24.8 µM; in the assay with MCF7, 33.7 µM.
On to `C=C(C)[C@@]12O[C@@]3(/C=C/C=C/CCCCC)O[C@@H]1[C@@H]1[C@@H]4O[C@]4(CO)[C@@H](O)[C@]4(O)C(=O)C(C)=C[C@H]4[C@@]1(O3)[C@H](C)[C@H]2OC(=O)c1ccccc1` [GNIDILATIDIN], for which the IC50 worked out at 16.1 µM with K562; 11.8 µM in the assay on U-937; 26.8 µM in the assay on HL-60; 8.72 µM in assay [1]; 2.02 µM with HT-1080; 23 µM in the assay with HCT-116. Besides, the IC50 in the assay with A549 turned out to be 13.1 µM; in the assay on HepG2 it was 8.04 µM; with HeLa it was 5.56 µM; with MCF7, 2.39 µM.
For the compound `C=C(C)[C@@]12OC3(c4ccccc4)O[C@@H]1[C@@H]1[C@H](O)[C@](O)(CO)[C@@H](O)[C@]4(O)C(=O)C(C)=C[C@H]4[C@@]1(O3)[C@H](C)[C@H]2OC(=O)c1ccccc1` [YUANHUAOATE B], the IC50 came to 21.3 µM in the assay with K562; 14.4 µM in the assay on U-937; 27 µM with HL-60; 23.3 µM in assay [1]; 0.59 µM in the assay with HT-1080; 26.5 µM with HCT-116. Further, the IC50 in the assay on A549 is 15.9 µM; in the assay with HepG2 it was 25.1 µM; in the assay on HeLa, 21 µM; in the assay with MCF7 it was 0.37 µM.
As for `C=C(C)[C@@]12O[C@@]3(c4ccccc4)O[C@@H]1[C@@H]1[C@@H]4O[C@]4(CO)[C@@H](O)[C@]4(O)C(=O)[C@@H](C)C[C@H]4[C@@]1(O3)[C@H](C)[C@H]2OC(=O)c1ccccc1`, the IC50 in the assay with K562 came to 24.6 µM; in the assay on U-937, 12.3 µM; with HL-60, 26 µM; in [1], 9.31 µM; in the assay with HT-1080, 14.3 µM; in the assay on HCT-116, 24.9 µM. For the same compound, the IC50 in the assay with A549 was found to be 12.5 µM; in the assay on HepG2, 24.1 µM; with HeLa, 20.3 µM; in the assay on MCF7 it was 0.37 µM.
Turning to `C=C(C)[C@]12C[C@@H](C)[C@@]34OC(c5ccccc5)(OC1[C@@H]3[C@@H]1O[C@]1(COC(=O)c1ccccc1)[C@@H](O)[C@@]1(O)[C@H]4C[C@H](C)[C@@H]1O)O2`, the IC50 in the assay on K562 was 20.2 µM; with U-937, 18.1 µM; in the assay with HL-60, 30.9 µM; in [1], 3.62 µM; with HT-1080, under 0.1 µM; with HCT-116, 28.1 µM. Besides, the IC50 worked out at 23.4 µM with A549, 29.9 µM with HepG2, 20.2 µM in the assay on HeLa and 25.3 µM in the assay on MCF7.
Take `C=C(C)[C@]12C[C@@H](C)[C@@]34OC(c5ccccc5)(O[C@@H]1[C@@H]3[C@H](O)[C@](O)(COC(=O)/C=C/C=C/CCCCC)[C@@H](O)[C@@]1(O)[C@H]4C[C@H](C)[C@@H]1O)O2`: the IC50 with K562 worked out at 24.2 µM; in the assay with U-937 it was 23.8 µM; with HL-60 it was 20.5 µM; in [1], 25.4 µM; in the assay with HT-1080 it was 29.9 µM; in the assay on HCT-116, 27.4 µM. Further, the IC50 in the assay on A549 is 22.3 µM; with HepG2, 22.7 µM; in the assay with HeLa, 26.2 µM; in the assay on MCF7, over 50 µM.
As for `C=C(C)[C@@]12OC3(/C=C/C=C/CCCCC)O[C@@H]1[C@@H]1[C@@H]4O[C@]4(CO)[C@@H](O)[C@]4(O)C(=O)C(C)=C[C@H]4[C@@]1(O3)[C@H](C)[C@H]2OC(=O)C(C)C`, the IC50 came to 5.11 µM in the assay with K562; 27.6 µM in the assay on U-937; 30 µM with HL-60; 24.9 µM in [1]; 4.55 µM in the assay on HT-1080; 25.2 µM with HCT-116. In addition, the IC50 was 23.1 µM in the assay with A549, 17.8 µM in the assay on HepG2, over 50 µM in the assay on HeLa and 20.8 µM in the assay on MCF7.
`O=c1[nH]cc(F)c(=O)[nH]1` [FLUOROURACIL]: the IC50 with K562 was 23.6 µM; in the assay with U-937 it was 23.9 µM; in the assay with HL-60, 10.1 µM; in [1], 6.67 µM; with HT-1080, 35.6 µM; with HCT-116 it was 27.8 µM. Also, the 50% inhibitory concentration (IC50) is 44.1 µM with A549, 40.3 µM with HepG2, 7.34 µM in the assay on HeLa and 11.5 µM with MCF7.
With `C=C(C)[C@]12C[C@@H](C)[C@]34OC5(CCCCCCC[C@@H](C)[C@@H]6[C@@H]3[C@]3(O[C@]6(C)OC3=O)[C@H](O)[C@@]3(CO)O[C@H]3[C@H]4[C@H]1O5)O2`, the IC50 with K562 turned out to be 26.3 µM; in the assay on U-937, 22.9 µM; with HL-60, 34.1 µM; in assay [1] it was 23 µM; in the assay on HT-1080, 20.8 µM; in the assay on HCT-116, 26.5 µM. In addition, the IC50 in the assay with A549 was over 50 µM; in the assay on HepG2, 25.2 µM; in the assay on HeLa it was 23.2 µM; in the assay with MCF7 it was 7.36 µM.
Regarding `C=C(C)[C@]12C[C@@H](C)[C@]34OC5(CCCCCCC[C@H](C)[C@@H]6[C@@H]3[C@]3(O[C@]6(C)OC3=O)[C@H](O)[C@@]3(CO)O[C@H]3[C@H]4[C@H]1O5)O2`, the IC50 in the assay with K562 was over 50 µM; with U-937 it was over 50 µM; in the assay with HL-60, over 50 µM; in assay [1] it was over 50 µM; in the assay on HT-1080, 0.83 µM; in the assay with HCT-116, 36 µM. In addition, the IC50 with A549 was 35.7 µM; with HepG2, 28.1 µM; in the assay on HeLa, 28.1 µM; with MCF7 it was 20.3 µM.
For the compound `C=C(C)[C@]1(O)C[C@@H](C)[C@@]2(O)[C@H]([C@H]1OC(=O)c1ccccc1)[C@H](O)[C@](O)(COC(=O)/C=C/C=C/CCCCC)[C@@H](O)[C@@]1(O)[C@H]2C[C@H](C)[C@@H]1O`, the IC50 in the assay with K562 turned out to be 24.5 µM; in the assay with U-937, 15.6 µM; with HL-60, 10.1 µM; in assay [1], 23.7 µM; with HT-1080, 22.9 µM; in the assay on HCT-116, 35.8 µM. The IC50 in the assay with A549 was 20.9 µM; in the assay with HepG2 it was 17.9 µM; with HeLa, 21.1 µM; in the assay with MCF7, over 50 µM.

A word on the IC50: it is the concentration that inhibits the measured activity by half. Low values mean greater potency, high ones weaker potency.
